conditions: human gut metagenome, 24 h, 2 µM
Note: call rule not given here.

| Bacterial Biotransformation | SMILES |
| --- | --- |
| Compound NOT metabolized | O=C1NCC2(CCN(CCc3ccccc3)CC2)O1 [FENSPIRIDE] |
| Compound NOT metabolized | CN(C)CC(c1ccc(O)cc1)C1(O)CCCCC1.O=C(O)CCC(=O)O (stereo not given) [DESVENLAFAXINE SUCCINATE] |

conditions: human gut metagenome, 24 h, 2 µM; remark: another data set of the same source

| Bacterial Biotransformation | SMILES |
| --- | --- |
| Compound NOT metabolized | O=C1NCC2(CCN(CCc3ccccc3)CC2)O1 [FENSPIRIDE] |
| Compound NOT metabolized | CN(C)CC(c1ccc(O)cc1)C1(O)CCCCC1.O=C(O)CCC(=O)O (stereo not given) [DESVENLAFAXINE SUCCINATE] |

test: (§1) The drug is tested on Z-030 corresponding to mouse gut metagenome with ENA study accession number: PRJEB37062 and ENA sample accession number: ERS12561829 for biotransformation under anaerobic condition. The drug concentrations were measured over 9 timepoints collected between 0 and 24 hours of incubation by liquid-chromatography-coupled mass spectrometry (LC–MS); conditions: 2 µM

| Bacterial Biotransformation | SMILES |
| --- | --- |
| Compound NOT metabolized | O=C1NCC2(CCN(CCc3ccccc3)CC2)O1 [FENSPIRIDE] |
| Compound NOT metabolized | CN(C)CC(c1ccc(O)cc1)C1(O)CCCCC1.O=C(O)CCC(=O)O (stereo not given) [DESVENLAFAXINE SUCCINATE] |

conditions: human gut metagenome, 24 h, 2 µM; remark: another data set of the same source

| Bacterial Biotransformation | SMILES |
| --- | --- |
| Compound NOT metabolized | O=C1NCC2(CCN(CCc3ccccc3)CC2)O1 [FENSPIRIDE] |
| Compound NOT metabolized | CN(C)CC(c1ccc(O)cc1)C1(O)CCCCC1.O=C(O)CCC(=O)O (stereo not given) [DESVENLAFAXINE SUCCINATE] |

conditions: human gut metagenome, 24 h, 2 µM; remark: another data set of the same source

| Bacterial Biotransformation | SMILES |
| --- | --- |
| Compound NOT metabolized | O=C1NCC2(CCN(CCc3ccccc3)CC2)O1 [FENSPIRIDE] |
| Compound NOT metabolized | CN(C)CC(c1ccc(O)cc1)C1(O)CCCCC1.O=C(O)CCC(=O)O (stereo not given) [DESVENLAFAXINE SUCCINATE] |

conditions: human gut metagenome, 24 h, 2 µM; remark: another data set of the same source

| Bacterial Biotransformation | SMILES |
| --- | --- |
| Compound NOT metabolized | O=C1NCC2(CCN(CCc3ccccc3)CC2)O1 [FENSPIRIDE] |
| Compound NOT metabolized | CN(C)CC(c1ccc(O)cc1)C1(O)CCCCC1.O=C(O)CCC(=O)O (stereo not given) [DESVENLAFAXINE SUCCINATE] |

test: as §1, with “Z-016” for “Z-030”, “ERS12561815” for “ERS12561829”; conditions: 2 µM

| Bacterial Biotransformation | SMILES |
| --- | --- |
| Compound NOT metabolized | O=C1NCC2(CCN(CCc3ccccc3)CC2)O1 [FENSPIRIDE] |
| Compound NOT metabolized | CN(C)CC(c1ccc(O)cc1)C1(O)CCCCC1.O=C(O)CCC(=O)O (stereo not given) [DESVENLAFAXINE SUCCINATE] |

conditions: human gut metagenome, 24 h, 2 µM; remark: another data set of the same source

| Bacterial Biotransformation | SMILES |
| --- | --- |
| Compound NOT metabolized | O=C1NCC2(CCN(CCc3ccccc3)CC2)O1 [FENSPIRIDE] |
| Compound NOT metabolized | CN(C)CC(c1ccc(O)cc1)C1(O)CCCCC1.O=C(O)CCC(=O)O (stereo not given) [DESVENLAFAXINE SUCCINATE] |

conditions: human gut metagenome, 24 h, 2 µM; remark: another data set of the same source

| Bacterial Biotransformation | SMILES |
| --- | --- |
| Compound NOT metabolized | O=C1NCC2(CCN(CCc3ccccc3)CC2)O1 [FENSPIRIDE] |
| Compound NOT metabolized | CN(C)CC(c1ccc(O)cc1)C1(O)CCCCC1.O=C(O)CCC(=O)O (stereo not given) [DESVENLAFAXINE SUCCINATE] |

conditions: human gut metagenome, 24 h, 2 µM; remark: another data set of the same source

| Bacterial Biotransformation | SMILES |
| --- | --- |
| Compound NOT metabolized | O=C1NCC2(CCN(CCc3ccccc3)CC2)O1 [FENSPIRIDE] |
| Compound NOT metabolized | CN(C)CC(c1ccc(O)cc1)C1(O)CCCCC1.O=C(O)CCC(=O)O (stereo not given) [DESVENLAFAXINE SUCCINATE] |

test: as §1, with “Z-014” for “Z-030”, “rat” for “mouse”, “ERS12561814” for “ERS12561829”; conditions: 2 µM

| Bacterial Biotransformation | SMILES |
| --- | --- |
| Compound NOT metabolized | O=C1NCC2(CCN(CCc3ccccc3)CC2)O1 [FENSPIRIDE] |
| Compound NOT metabolized | CN(C)CC(c1ccc(O)cc1)C1(O)CCCCC1.O=C(O)CCC(=O)O (stereo not given) [DESVENLAFAXINE SUCCINATE] |

conditions: human gut metagenome, 24 h, 2 µM; remark: another data set of the same source

| Bacterial Biotransformation | SMILES |
| --- | --- |
| Compound NOT metabolized | O=C1NCC2(CCN(CCc3ccccc3)CC2)O1 [FENSPIRIDE] |
| Compound NOT metabolized | CN(C)CC(c1ccc(O)cc1)C1(O)CCCCC1.O=C(O)CCC(=O)O (stereo not given) [DESVENLAFAXINE SUCCINATE] |

conditions: human gut metagenome, 24 h, 2 µM; remark: another data set of the same source

| Bacterial Biotransformation | SMILES |
| --- | --- |
| Compound NOT metabolized | O=C1NCC2(CCN(CCc3ccccc3)CC2)O1 [FENSPIRIDE] |
| Compound NOT metabolized | CN(C)CC(c1ccc(O)cc1)C1(O)CCCCC1.O=C(O)CCC(=O)O (stereo not given) [DESVENLAFAXINE SUCCINATE] |

test: as §1, with “WLS-310” for “Z-030”, “human” for “mouse”, “ERS12561785” for “ERS12561829”; conditions: 2 µM

| Bacterial Biotransformation | SMILES |
| --- | --- |
| Compound NOT metabolized | O=C1NCC2(CCN(CCc3ccccc3)CC2)O1 [FENSPIRIDE] |
| Compound NOT metabolized | CN(C)CC(c1ccc(O)cc1)C1(O)CCCCC1.O=C(O)CCC(=O)O (stereo not given) [DESVENLAFAXINE SUCCINATE] |

test: as §1, with “Z-019” for “Z-030”, “rat” for “mouse”, “ERS12561818” for “ERS12561829”; conditions: 2 µM

| Bacterial Biotransformation | SMILES |
| --- | --- |
| Compound NOT metabolized | O=C1NCC2(CCN(CCc3ccccc3)CC2)O1 [FENSPIRIDE] |
| Compound NOT metabolized | CN(C)CC(c1ccc(O)cc1)C1(O)CCCCC1.O=C(O)CCC(=O)O (stereo not given) [DESVENLAFAXINE SUCCINATE] |

test: as §1, with “Z-023” for “Z-030”, “to” for “to mouse gut”, “ERS12561822” for “ERS12561829”; conditions: 2 µM

| Bacterial Biotransformation | SMILES |
| --- | --- |
| Compound NOT metabolized | O=C1NCC2(CCN(CCc3ccccc3)CC2)O1 [FENSPIRIDE] |
| Compound NOT metabolized | CN(C)CC(c1ccc(O)cc1)C1(O)CCCCC1.O=C(O)CCC(=O)O (stereo not given) [DESVENLAFAXINE SUCCINATE] |

conditions: human gut metagenome, 24 h, 2 µM; remark: another data set of the same source

| Bacterial Biotransformation | SMILES |
| --- | --- |
| Compound NOT metabolized | O=C1NCC2(CCN(CCc3ccccc3)CC2)O1 [FENSPIRIDE] |
| Compound NOT metabolized | CN(C)CC(c1ccc(O)cc1)C1(O)CCCCC1.O=C(O)CCC(=O)O (stereo not given) [DESVENLAFAXINE SUCCINATE] |

test: as §1, with “Z-025” for “Z-030”, “rabbit” for “mouse”, “ERS12561824” for “ERS12561829”; conditions: 2 µM

| Bacterial Biotransformation | SMILES |
| --- | --- |
| Compound NOT metabolized | O=C1NCC2(CCN(CCc3ccccc3)CC2)O1 [FENSPIRIDE] |
| Compound NOT metabolized | CN(C)CC(c1ccc(O)cc1)C1(O)CCCCC1.O=C(O)CCC(=O)O (stereo not given) [DESVENLAFAXINE SUCCINATE] |

test: as §1, with “Z-018” for “Z-030”, “pig” for “mouse”, “ERS12561817” for “ERS12561829”; conditions: 2 µM

| Bacterial Biotransformation | SMILES |
| --- | --- |
| Compound NOT metabolized | O=C1NCC2(CCN(CCc3ccccc3)CC2)O1 [FENSPIRIDE] |
| Compound NOT metabolized | CN(C)CC(c1ccc(O)cc1)C1(O)CCCCC1.O=C(O)CCC(=O)O (stereo not given) [DESVENLAFAXINE SUCCINATE] |

test: as §1, with “WLS-086” for “Z-030”, “human” for “mouse”, “ERS12561752” for “ERS12561829”; conditions: 2 µM

| Bacterial Biotransformation | SMILES |
| --- | --- |
| Compound metabolized | O=C1NCC2(CCN(CCc3ccccc3)CC2)O1 [FENSPIRIDE] |
| Compound NOT metabolized | CN(C)CC(c1ccc(O)cc1)C1(O)CCCCC1.O=C(O)CCC(=O)O (stereo not given) [DESVENLAFAXINE SUCCINATE] |
